Results from US20030118577A1, “Use of analogues of superoxide dismutase for treating hepatocellular insufficiencies” (priority 2000, published 2003).

Test system: acute hepatic insufficiency induced by acetaminophen
Assay: Survival of mice after intraperitoneal acetaminophen (acute hepatic insufficiency)
Experimental: The intraperitoneal injection of acetaminophen into mice induces a severe hepatotoxicity, the degree of which may be evaluated by the survival of the animals, measuring transaminase activities, and macroscopic and microscopic examination of the livers.
The acetaminophen in solution at 100 mg/ml in PBS at pH 7.4 is administered by the intraperitoneal route.
In a first series of experiments, a group of mice received a dose of 1000 mg/kg of acetaminophen; a second group received a dose of 1000 mg/kg of acetaminophen and a dose of 10 mg/kg of MnTBAP administered either 2 h before the acetaminophen or 6 h after; a control group received either MnTBAP alone (10 mg/kg), or PBS alone.
The survival of the animals is monitored for 24 hours after the administration of acetaminophen.
The effect of N-acetyl-L-cysteine (NAC), of CuDIPS, and of MnTBAP on the survival of mice after intraperitoneal injection of 1000 mg/kg of acetaminophen (APAP) was compared.
MnTBAP, NAC, or CuDIPS are administered in the form of a bolus, preventively, 2 hours before (P) or, curatively, 6 hours after (C) the acetaminophen.
The survival of the animals is monitored for 24 hours after administration of acetaminophen.

SMILES: CC(=O)N[C@@H](CS)C(=O)O [NAC, N-acetyl-L-cysteine]
- activity on survival, curative versus preventive administration (APAP 1000 mg/kg, 6 hours after (C) or 2 hours before (P)): only active preventively
- percentage of surviving animals (Group X: APAP 1000 mg/kg, NAC 100 mg/kg (P), time 0 h): 100%
- percentage of surviving animals (Group X: APAP 1000 mg/kg, NAC 100 mg/kg (P), time 6 h): 100%
- percentage of surviving animals (Group X: APAP 1000 mg/kg, NAC 100 mg/kg (P), time 8 h): 100%
- percentage of surviving animals (Group X: APAP 1000 mg/kg, NAC 100 mg/kg (P), time 9 h): 100%
- percentage of surviving animals (Group X: APAP 1000 mg/kg, NAC 100 mg/kg (P), time 10 h): 100%
- percentage of surviving animals (Group X: APAP 1000 mg/kg, NAC 100 mg/kg (P), time 11 h): 100%
- percentage of surviving animals (Group X: APAP 1000 mg/kg, NAC 100 mg/kg (P), time 12 h): 100%
- percentage of surviving animals (Group X: APAP 1000 mg/kg, NAC 100 mg/kg (P), time 13 h): 100%
- percentage of surviving animals (Group X: APAP 1000 mg/kg, NAC 100 mg/kg (P), time 14 h): 90%
- percentage of surviving animals (Group X: APAP 1000 mg/kg, NAC 100 mg/kg (P), time 15 h): 80%
- percentage of surviving animals (Group X: APAP 1000 mg/kg, NAC 100 mg/kg (P), time 16 h): 60%
- percentage of surviving animals (Group X: APAP 1000 mg/kg, NAC 100 mg/kg (P), time 17 h): 60%
- percentage of surviving animals (Group X: APAP 1000 mg/kg, NAC 100 mg/kg (P), time 18 h): 50%
- percentage of surviving animals (Group X: APAP 1000 mg/kg, NAC 100 mg/kg (P), time 20 h): 40%
- percentage of surviving animals (Group X: APAP 1000 mg/kg, NAC 100 mg/kg (P), time 22 h): 40%
- percentage of surviving animals (Group X: APAP 1000 mg/kg, NAC 100 mg/kg (P), time 24 h): 40%
- percentage of surviving animals (Group XI: APAP 1000 mg/kg, NAC 200 mg/kg (P), time 0 h): 100%
- percentage of surviving animals (Group XI: APAP 1000 mg/kg, NAC 200 mg/kg (P), time 6 h): 100%
- percentage of surviving animals (Group XI: APAP 1000 mg/kg, NAC 200 mg/kg (P), time 8 h): 100%
- percentage of surviving animals (Group XI: APAP 1000 mg/kg, NAC 200 mg/kg (P), time 9 h): 100%
- percentage of surviving animals (Group XI: APAP 1000 mg/kg, NAC 200 mg/kg (P), time 10 h): 100%
- percentage of surviving animals (Group XI: APAP 1000 mg/kg, NAC 200 mg/kg (P), time 11 h): 90%
- percentage of surviving animals (Group XI: APAP 1000 mg/kg, NAC 200 mg/kg (P), time 12 h): 90%
- percentage of surviving animals (Group XI: APAP 1000 mg/kg, NAC 200 mg/kg (P), time 13 h): 90%
- percentage of surviving animals (Group XI: APAP 1000 mg/kg, NAC 200 mg/kg (P), time 14 h): 90%
- percentage of surviving animals (Group XI: APAP 1000 mg/kg, NAC 200 mg/kg (P), time 15 h): 90%
- percentage of surviving animals (Group XI: APAP 1000 mg/kg, NAC 200 mg/kg (P), time 16 h): 80%
- percentage of surviving animals (Group XI: APAP 1000 mg/kg, NAC 200 mg/kg (P), time 17 h): 80%
- percentage of surviving animals (Group XI: APAP 1000 mg/kg, NAC 200 mg/kg (P), time 18 h): 60%
- percentage of surviving animals (Group XI: APAP 1000 mg/kg, NAC 200 mg/kg (P), time 20 h): 60%
- percentage of surviving animals (Group XI: APAP 1000 mg/kg, NAC 200 mg/kg (P), time 22 h): 60%
- percentage of surviving animals (Group XI: APAP 1000 mg/kg, NAC 200 mg/kg (P), time 24 h): 60%
- percentage of surviving animals (Group XII: APAP 1000 mg/kg, NAC 300 mg/kg (P), time 0 h): 100%
- percentage of surviving animals (Group XII: APAP 1000 mg/kg, NAC 300 mg/kg (P), time 6 h): 100%
- percentage of surviving animals (Group XII: APAP 1000 mg/kg, NAC 300 mg/kg (P), time 8 h): 100%
- percentage of surviving animals (Group XII: APAP 1000 mg/kg, NAC 300 mg/kg (P), time 9 h): 90%
- percentage of surviving animals (Group XII: APAP 1000 mg/kg, NAC 300 mg/kg (P), time 10 h): 90%
- percentage of surviving animals (Group XII: APAP 1000 mg/kg, NAC 300 mg/kg (P), time 11 h): 90%
- percentage of surviving animals (Group XII: APAP 1000 mg/kg, NAC 300 mg/kg (P), time 12 h): 90%
- percentage of surviving animals (Group XII: APAP 1000 mg/kg, NAC 300 mg/kg (P), time 13 h): 90%
- percentage of surviving animals (Group XII: APAP 1000 mg/kg, NAC 300 mg/kg (P), time 14 h): 90%
- percentage of surviving animals (Group XII: APAP 1000 mg/kg, NAC 300 mg/kg (P), time 15 h): 90%
- percentage of surviving animals (Group XII: APAP 1000 mg/kg, NAC 300 mg/kg (P), time 16 h): 90%
- percentage of surviving animals (Group XII: APAP 1000 mg/kg, NAC 300 mg/kg (P), time 17 h): 90%
- percentage of surviving animals (Group XII: APAP 1000 mg/kg, NAC 300 mg/kg (P), time 18 h): 80%
- percentage of surviving animals (Group XII: APAP 1000 mg/kg, NAC 300 mg/kg (P), time 20 h): 80%
- percentage of surviving animals (Group XII: APAP 1000 mg/kg, NAC 300 mg/kg (P), time 22 h): 80%
- percentage of surviving animals (Group XII: APAP 1000 mg/kg, NAC 300 mg/kg (P), time 24 h): 80%
- percentage of surviving animals (Group XIII: APAP 1000 mg/kg, NAC 100 mg/kg (C), time 0 h): 100%
- percentage of surviving animals (Group XIII: APAP 1000 mg/kg, NAC 100 mg/kg (C), time 6 h): 100%
- percentage of surviving animals (Group XIII: APAP 1000 mg/kg, NAC 100 mg/kg (C), time 8 h): 90%
- percentage of surviving animals (Group XIII: APAP 1000 mg/kg, NAC 100 mg/kg (C), time 9 h): 80%
- percentage of surviving animals (Group XIII: APAP 1000 mg/kg, NAC 100 mg/kg (C), time 10 h): 60%
- percentage of surviving animals (Group XIII: APAP 1000 mg/kg, NAC 100 mg/kg (C), time 11 h): 50%
- percentage of surviving animals (Group XIII: APAP 1000 mg/kg, NAC 100 mg/kg (C), time 12 h): 50%
- percentage of surviving animals (Group XIII: APAP 1000 mg/kg, NAC 100 mg/kg (C), time 13 h): 40%
- percentage of surviving animals (Group XIII: APAP 1000 mg/kg, NAC 100 mg/kg (C), time 14 h): 30%
- percentage of surviving animals (Group XIII: APAP 1000 mg/kg, NAC 100 mg/kg (C), time 15 h): 20%
- percentage of surviving animals (Group XIII: APAP 1000 mg/kg, NAC 100 mg/kg (C), time 16 h): 20%
- percentage of surviving animals (Group XIII: APAP 1000 mg/kg, NAC 100 mg/kg (C), time 17 h): 20%
- percentage of surviving animals (Group XIII: APAP 1000 mg/kg, NAC 100 mg/kg (C), time 18 h): 10%
- percentage of surviving animals (Group XIII: APAP 1000 mg/kg, NAC 100 mg/kg (C), time 20 h): 10%
- percentage of surviving animals (Group XIII: APAP 1000 mg/kg, NAC 100 mg/kg (C), time 22 h): 10%
- percentage of surviving animals (Group XIII: APAP 1000 mg/kg, NAC 100 mg/kg (C), time 24 h): 10%
- percentage of surviving animals (Group XIV: APAP 1000 mg/kg, NAC 300 mg/kg (C), time 0 h): 100%
- percentage of surviving animals (Group XIV: APAP 1000 mg/kg, NAC 300 mg/kg (C), time 6 h): 100%
- percentage of surviving animals (Group XIV: APAP 1000 mg/kg, NAC 300 mg/kg (C), time 8 h): 100%
- percentage of surviving animals (Group XIV: APAP 1000 mg/kg, NAC 300 mg/kg (C), time 9 h): 90%
- percentage of surviving animals (Group XIV: APAP 1000 mg/kg, NAC 300 mg/kg (C), time 10 h): 80%
- percentage of surviving animals (Group XIV: APAP 1000 mg/kg, NAC 300 mg/kg (C), time 11 h): 80%
- percentage of surviving animals (Group XIV: APAP 1000 mg/kg, NAC 300 mg/kg (C), time 12 h): 60%
- percentage of surviving animals (Group XIV: APAP 1000 mg/kg, NAC 300 mg/kg (C), time 13 h): 40%
- percentage of surviving animals (Group XIV: APAP 1000 mg/kg, NAC 300 mg/kg (C), time 14 h): 40%
- percentage of surviving animals (Group XIV: APAP 1000 mg/kg, NAC 300 mg/kg (C), time 15 h): 40%
- percentage of surviving animals (Group XIV: APAP 1000 mg/kg, NAC 300 mg/kg (C), time 16 h): 30%
- percentage of surviving animals (Group XIV: APAP 1000 mg/kg, NAC 300 mg/kg (C), time 17 h): 30%
- percentage of surviving animals (Group XIV: APAP 1000 mg/kg, NAC 300 mg/kg (C), time 18 h): 30%
- percentage of surviving animals (Group XIV: APAP 1000 mg/kg, NAC 300 mg/kg (C), time 20 h): 20%
- percentage of surviving animals (Group XIV: APAP 1000 mg/kg, NAC 300 mg/kg (C), time 22 h): 20%
- percentage of surviving animals (Group XIV: APAP 1000 mg/kg, NAC 300 mg/kg (C), time 24 h): 20%
